The text below walks through data of ChEMBL document CHEMBL1201862, “PubChem BioAssay data set” (2004).

Assay in all cases: inhibition of tumour cell growth, NCI panel, 48 h
Assay [1] relates to NCI-H460.
Assay [2] concerns RPMI-8226.
Assay [3] has as its system LOX IMVI.
Assay [4] concerns HCT-116.
The test system of assay [5] is SF-539.
The subject of assay [6] is HCC 2998.
Assay [7] relates to Malme-3M.
Assay [8] relates to ACHN.
The subject of assay [9] is DU-145.
Assay [10] has as its system MDA-N.
For assay [11], the system named is MOLT-4.
In assay [12] the test system is SW-620.
The test system of assay [13] is SR.
For assay [14], the system named is SK-OV-3.
Assay [15] deals with SF-268.
Assay [16] relates to SN12C.
The subject of assay [17] is SF-295.
Assay [18] deals with UACC-62.
Assay [19] deals with TK-10.

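Compound exposure: 48 hours, 5 concentrations, 96-well plates. Here, GI50 denotes the concentration required for 50% inhibition of growth.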 Activity calls are given as the source filed them. No stated cut-off is given here; in the data, active = GI50 up to about 1.1 µM and inactive = higher.

On to `COc1ccccc1NC(=O)C(C#N)=C(SC)SC`, for which the GI50 in assay [1] was 94.2 µM (inactive); in assay [2] it was > 100 µM (inactive); in assay [3], > 100 µM (inactive); in assay [4], > 100 µM (inactive); in [5], > 100 µM (inactive); in assay [6] it was > 100 µM (inactive). The GI50 in assay [7], in assay [8], in assay [9], in assay [10], in assay [11] and in [12] was > 100 µM (inactive) throughout. For the same compound, the GI50 in assay [13], in assay [14], in assay [15], in [16], in [17] and in assay [18] was > 100 µM (inactive) throughout. Also, the GI50 in [19] was > 100 µM (inactive).
Take `CO/N=C(\C)CCC#Cc1ccccc1C(=O)OC`: the GI50 in assay [1], in assay [2], in assay [3], in assay [4], in assay [5] and in [6] was > 10 µM (inactive) each time. For the same compound, the GI50 in [7], in [8], in assay [9], in assay [10], in [11] and in [12] was > 10 µM (inactive) each time. Moreover, the GI50 in assay [13], in assay [14], in assay [15], in assay [16], in [17] and in [18] was > 10 µM (inactive) throughout. For the same compound, the GI50 in assay [19] was > 10 µM (inactive).
Take `[N-]=[N+]=NC1(N=[N+]=[N-])C(=O)NN=C(c2ccccc2)C1=O` (stereo not given): the GI50 in assay [1] is > 100 µM (inactive); in assay [2] it was 41.3 µM (inactive); in assay [3] it was 37.7 µM (inactive); in [4] it was 16.8 µM (inactive); in [5] it was > 100 µM (inactive); in assay [6], > 100 µM (inactive). Besides, the GI50 in [7] is 7.18 µM (inactive); in assay [8], > 100 µM (inactive); in assay [9], > 100 µM (inactive); in [10], 20.7 µM (inactive); in assay [11], 28.8 µM (inactive); in [12], 50.9 µM (inactive). For the same compound, the GI50 in assay [13] is 32.7 µM (inactive); in [14], > 100 µM (inactive); in assay [15] it was 13 µM (inactive); in assay [16], > 100 µM (inactive); in [17], 61.4 µM (inactive); in assay [18], 57.7 µM (inactive). Also, in [19], the GI50 was > 100 µM (inactive).
As to `O=C(CCc1cccc(O)c1)NCCc1cccc(OCc2ccccc2)c1`, the GI50 in [1] is 15.6 µM (inactive); in assay [2], 16.2 µM (inactive); in assay [3] it was 15.6 µM (inactive); in assay [4], 16.7 µM (inactive); in assay [5], 16.8 µM (inactive); in [6], 17.3 µM (inactive). The GI50 in assay [7] is 17.6 µM (inactive); in assay [8], 25.4 µM (inactive); in [9], 27.5 µM (inactive); in assay [10] it was 18.6 µM (inactive); in assay [11], 11 µM (inactive); in assay [12], 21.3 µM (inactive). Besides, the GI50 in assay [13] is 25 µM (inactive); in [14], 23.6 µM (inactive); in assay [15] it was 15.3 µM (inactive); in assay [16], 18.8 µM (inactive); in assay [17], 16.7 µM (inactive); in assay [18] it was 14.3 µM (inactive). Besides, the GI50 in assay [19] was 24.1 µM (inactive).
For `C/C1=C\CC[C@@]2(C)O[C@@H]2C[C@@H](C2(C)CO2)CC/C(C)=C/CC1` (stereo not given in full), the GI50 was 19.1 µM (inactive) in assay [1]; 31 µM (inactive) in [2]; 14.4 µM (inactive) in [3]; 20.4 µM (inactive) in [4]; 21.7 µM (inactive) in assay [5]; 15 µM (inactive) in assay [6]. Further, the GI50 was 15.3 µM (inactive) in [7]; 17.9 µM (inactive) in assay [8]; 24.8 µM (inactive) in assay [9]; 25.6 µM (inactive) in assay [10]; 47.2 µM (inactive) in assay [11]; 32.8 µM (inactive) in assay [12]. Moreover, the GI50 in [13] is 33 µM (inactive); in assay [14] it was 49.3 µM (inactive); in [15] it was 17.1 µM (inactive); in [16] it was 17.7 µM (inactive); in assay [17] it was 22.1 µM (inactive); in assay [18], 16 µM (inactive). In addition, the GI50 in assay [19] was 15.4 µM (inactive).
On to `CC(C)=CCC[C@@H](C)C1=C(O)C(=O)C(C)=C(Nc2ccccc2Cl)C1=O`, for which the GI50 in [1] was 14.1 µM (inactive); in assay [2] it was 25.9 µM (inactive); in [3], 8.57 µM (inactive); in assay [4] it was 15 µM (inactive); in assay [5], 9.31 µM (inactive); in assay [6] it was 20.6 µM (inactive). The GI50 in [7] is 11.3 µM (inactive); in [8], 19.1 µM (inactive); in [9] it was 36.2 µM (inactive); in assay [10], 21.5 µM (inactive); in assay [11], 5 µM (inactive); in [12], 27 µM (inactive). In addition, the GI50 was 11.5 µM (inactive) in assay [13]; 27.1 µM (inactive) in assay [14]; 16 µM (inactive) in assay [15]; 25.1 µM (inactive) in assay [16]; 6.71 µM (inactive) in assay [17]; 12.2 µM (inactive) in [18]. Also, the GI50 in [19] is 33.7 µM (inactive).
For `FC1(F)[Se]C2C3CCC(C3)C2C1(F)F` (stereo not given), the GI50 in assay [1] was > 100 µM (inactive); in assay [2] it was > 100 µM (inactive); in [3], > 100 µM (inactive); in [4] it was 56.2 µM (inactive); in assay [5] it was > 100 µM (inactive); in assay [6] it was > 100 µM (inactive). Further, the GI50 in assay [7], in assay [8], in assay [9], in assay [10], in assay [11] and in [12] was > 100 µM (inactive) throughout. Besides, the GI50 in assay [13] was > 100 µM (inactive); in assay [14], > 100 µM (inactive); in assay [15] it was > 100 µM (inactive); in assay [16] it was > 100 µM (inactive); in [17], 35.2 µM (inactive); in assay [18], > 100 µM (inactive). Also, in [19], the GI50 is > 100 µM (inactive).
Regarding `O=C(c1ccc(Cl)cc1Cl)N(Cc1cccnc1)C(=S)N(Cc1cccnc1)C(=O)c1ccc(Cl)cc1Cl`, the GI50 in assay [1] was 15.5 µM (inactive); in assay [2], 0.678 µM (active); in assay [3], 3.64 µM (inactive); in [4], 2.48 µM (inactive); in assay [5], 2.22 µM (inactive); in assay [6], 3.4 µM (inactive). Also, the GI50 in assay [7] is 16.4 µM (inactive); in [8], 9.62 µM (inactive); in assay [9], 3.39 µM (inactive); in [10], 2.31 µM (inactive); in assay [11] it was 4.06 µM (inactive); in assay [12], 3.68 µM (inactive). Further, the GI50 in assay [13] was 3.4 µM (inactive); in assay [14], 19.3 µM (inactive); in assay [15] it was 4.68 µM (inactive); in assay [16], 4.68 µM (inactive); in [17] it was 22.2 µM (inactive); in assay [18], 10.3 µM (inactive). The GI50 in assay [19] was 3.77 µM (inactive).
`CCOC(=O)c1ccc2nc(-c3ccc(S(=O)(=O)F)cc3)cc(O)c2c1`: the GI50 is 34.4 µM (inactive) in assay [1]; 45.9 µM (inactive) in assay [2]; 36.5 µM (inactive) in assay [3]; 23.1 µM (inactive) in assay [4]; 56.5 µM (inactive) in [5]; 14.5 µM (inactive) in [6]. In addition, the GI50 in assay [7] was 25.1 µM (inactive); in [8], 24.2 µM (inactive); in assay [9], 48.9 µM (inactive); in assay [10] it was 33.5 µM (inactive); in [11], 36.8 µM (inactive); in [12], 76.7 µM (inactive). The GI50 in assay [13] was 35.5 µM (inactive); in [14], 38.9 µM (inactive); in [15] it was 60.8 µM (inactive); in assay [16], 43.9 µM (inactive); in [17], 39.8 µM (inactive); in [18], 24 µM (inactive). Besides, the GI50 in assay [19] is 27.7 µM (inactive).
Take `CC(=O)OCC(=O)O[C@@H]1[C@H]2[C@@H](OC(=O)c3ccccc3)[C@@H](C)C[C@]2(O)[C@H](OC(C)=O)[C@@]2(C)C(OC(C)=O)[C@]1(OC(C)=O)C[C@H]1C(=O)C(C)(C)C[C@@H]12` (stereo not given in full): the GI50 in [1] is 4.12 µM (inactive); in [2], 13.3 µM (inactive); in assay [3] it was > 50 µM (inactive); in assay [4], > 50 µM (inactive); in assay [5], 34.5 µM (inactive); in assay [6], 25.8 µM (inactive). The GI50 in [7] is 35.9 µM (inactive); in assay [8] it was > 45.3 µM (inactive); in [9] it was > 50 µM (inactive); in assay [10] it was 18.1 µM (inactive); in assay [11], > 19.6 µM (inactive); in assay [12], > 50 µM (inactive). The GI50 was > 50 µM (inactive) in assay [13]; > 50 µM (inactive) in [14]; > 50 µM (inactive) in assay [15]; > 50 µM (inactive) in assay [16]; 22.4 µM (inactive) in assay [17]; > 50 µM (inactive) in assay [18]. Besides, the GI50 in [19] was > 50 µM (inactive).
